Starred links: 1 amine or outer side, 2 acyl side, 3 side chain; linkers in the order of their positions; H or OH if unused. Positions of bridges follow the written chain, without caps; N, C: chain ends. Non-standard residues stand in square brackets, D forms with d. Residues, ends and D or L forms follow the SMILES beside them. Groups on a side chain read outwards from the residue. *: point of attachment. Phe(4-OC2H4NH2,2,3-(CH2)3) = NCCOc1ccc(C[C@H](N)C(=O)O)c2c1CCC2; Trp(7-cPr) = N[C@@H](Cc1c[nH]c2c(C3CC3)cccc12)C(=O)O; Trp(7-Me) = Cc1cccc2c(C[C@H](N)C(=O)O)c[nH]c12; C18 diacid = O=C(O)CCCCCCCCCCCCCCCCC(=O)*; γGlu = O=C(O)[C@H](CCC(=O)[*:2])N[*:1]; 2Nal = N[C@@H](Cc1ccc2ccccc2c1)C(=O)O; TBMB = c1c(C[*:1])cc(C[*:3])cc1C[*:2]; Thp(SO2) = NC1(C(=O)O)CCS(=O)(=O)CC1; AEF = NCCOc1ccc(C[C@H](N)C(=O)O)cc1; 3Pal = N[C@@H](Cc1cccnc1)C(=O)O; Pen = CC(C)(S)[C@H](N)C(=O)O; Thp = NC1(C(=O)O)CCOCC1; Dap = NC[C@H](N)C(=O)O; AEEA = NCCOCCOCC(=O)O; CO = O=C([*:1])[*:2]; Sar = CNCC(=O)O
Target: T1, IL-23α/IL-12β and IL-23R (Homo sapiens, UniProt Q5VWK5)
T1 construct: purchased ACRO ILR-H82F3 (IL-23R); ILB-H52W5 (IL-23α/IL-12β)
T1 sequence (Q5VWK5 24-353 limits assumed): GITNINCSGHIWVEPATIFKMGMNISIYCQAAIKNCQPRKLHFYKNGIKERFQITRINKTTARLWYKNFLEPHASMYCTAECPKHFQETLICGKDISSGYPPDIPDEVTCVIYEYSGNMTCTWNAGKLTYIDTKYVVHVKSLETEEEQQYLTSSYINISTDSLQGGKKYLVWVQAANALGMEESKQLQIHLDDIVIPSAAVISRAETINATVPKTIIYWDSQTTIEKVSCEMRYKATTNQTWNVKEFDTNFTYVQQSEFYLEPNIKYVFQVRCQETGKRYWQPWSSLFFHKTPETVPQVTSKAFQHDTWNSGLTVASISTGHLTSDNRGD
Test: IL-23α/IL-12β and IL-23R binding assay (TR-FRET/HTRF)
Conditions: inhibition of the binding of IL-23α/IL-12β to IL-23R, TR-FRET; both proteins 0.3 nM
Procedure: 1. IL-23α/IL-12β and IL-23R binding assay
Compounds were tested for their inhibition on the binding of IL-23α/IL-12β to IL-23R by the TR-FRET method. Solutions of proteins IL-23α/IL-12β (ACRO, Cat# ILB-H52W5) and IL-23R (ACRO, Cat# ILR-H82F3) were prepared in reaction buffer PPI (PerkinElmer, Cat# 61DB10RDF). The final concentrations of IL-23α/IL-12β and IL-23R in the reaction mixture were both 0.3 nM. Positive reference Guselkumab was 3-fold diluted from an initial concentration of 30 nM, with 10 doses. 0.1 µL of the positive reference diluted in the reaction buffer was delivered to a 384-well plate (Grenier, Cat# 784075) by the acoustic liquid delivery technique (Echo 655), and the plate was centrifuged at 1000 rpm for 1 minute. 2.5 µL of IL-23α/IL-12β solution was transferred into the 384-well reaction plate, and the plate was centrifuged at 1000 rpm for 1 minute, and incubated at 25°C for 60 minutes. 2.5 µL of IL-23R solution was transferred into the 384-well reaction plate, and the plate was centrifuged at 1000 rpm for 1 minute. 5 µL of Streptavidin-Tb cryptate and Anti 6HIS-d2 detection mixture was transferred into the 384-well reaction plate, and the plate was centrifuged at 1000 rpm for 1 minute, and incubated at 25°C for 60 minutes. Finally, the HTRF signal (Ratio 665/620 nm) was read with a BMG high-throughput drug screening multifunctional microplate reader. IC50 values were obtained by nonlinear regression curve fitting using GraphPad Prism software.

| Compound | IC50 [nM] |
| --- | --- |
| CC(=O)NCCCC[C@@H]1NC(=O)[C@H](Cc2c[nH]c3c(C)cccc23)NC(=O)[C@H]([C@@H](C)O)NC(=O)[C@H](CC(N)=O)NC(=O)C(NC(C)=O)CCCC[C@@H](C(=O)N[C@@H](Cc2ccc(OCCN)cc2)C(=O)N[C@@H](Cc2ccc3ccccc3c2)C(=O)NC2(C(=O)N[C@@H](CCC(=O)O)C(=O)N[C@@H](CC(N)=O)C(=O)N[C@@H](Cc3cccnc3)C(=O)N(C)CC(N)=O)CCOCC2)NC1=O (single isomer, unassigned) [Compound 44-1] | 0.145 |
| CC(=O)NCCCC[C@@H]1NC(=O)[C@H](Cc2c[nH]c3c(C)cccc23)NC(=O)[C@H]([C@@H](C)O)NC(=O)[C@H](CC(N)=O)NC(=O)C(NC(C)=O)CCCC[C@@H](C(=O)N[C@@H](Cc2ccc(OCCN)cc2)C(=O)N[C@@H](Cc2ccc3ccccc3c2)C(=O)NC2(C(=O)N[C@@H](CCC(=O)O)C(=O)N[C@@H](CC(N)=O)C(=O)N[C@@H](Cc3cccnc3)C(=O)N(C)CC(N)=O)CCOCC2)NC1=O (single isomer, unassigned) [Compound 44-2] | 0.134 |
| CC(=O)N[C@H]1CSCc2cc3cc(c2)CSC[C@@H](C(=O)N[C@@H](CC(N)=O)C(=O)N[C@@H](Cc2cccnc2)C(=O)N(C)CC(N)=O)NC(=O)C2(CCS(=O)(=O)CC2)NC(=O)[C@H](Cc2ccc4ccccc4c2)NC(=O)[C@H](Cc2ccc(OCCN)c4c2CCC4)NC(=O)[C@H](CSC3)NC(=O)[C@H](CCC(N)=O)NC(=O)[C@H](Cc2c[nH]c3c(C)cccc23)NC(=O)[C@H]([C@@H](C)O)NC(=O)[C@H](Cc2c[nH]cn2)NC1=O [Compound 19] (Ac-CHT[Trp(7-Me)]QC[Phe(4-OC2H4NH2,2,3-(CH2)3)][2Nal][Thp(SO2)]CN[3Pal][Sar]-NH2; linker 1-6-10 via TBMB) | 0.248 |
| C[C@@H](O)[C@@H]1NC(=O)[C@H](Cc2c[nH]cn2)NC(=O)[C@@H](NC(=O)COCCOCCNC(=O)COCCOCCNC(=O)CC[C@H](NC(=O)CCCCCCCCCCCCCCCCC(=O)O)C(=O)O)C(C)(C)SSC(C)(C)[C@@H](C(=O)N[C@@H](Cc2ccc(OCCN)c3c2CCC3)C(=O)N[C@@H](Cc2ccc3ccccc3c2)C(=O)NC2(C(=O)N[C@@H](CCC(=O)O)C(=O)N[C@@H](CC(N)=O)C(=O)N[C@@H](Cc3cccnc3)C(=O)N(C)CC(N)=O)CCS(=O)(=O)CC2)NC(=O)[C@H](CCC(N)=O)NC(=O)[C@H](Cc2c[nH]c3c(C4CC4)cccc23)NC1=O [Compound 20] ({C18 diacid-γGlu-AEEA-AEEA}-[Pen]HT[Trp(7-cPr)]Q[Pen][Phe(4-OC2H4NH2,2,3-(CH2)3)][2Nal][Thp(SO2)]EN[3Pal][Sar]-NH2; disulfide 1-6) | 0.116 |
| CC(=O)N[C@@H]1C(=O)N[C@@H](Cc2c[nH]cn2)C(=O)N[C@@H]([C@@H](C)O)C(=O)N[C@@H](Cc2c[nH]c3c(C4CC4)cccc23)C(=O)N[C@@H](CCCCNC(=O)COCCOCCNC(=O)COCCOCCNC(=O)CC[C@H](NC(=O)CCCCCCCCCCCCCCCCC(=O)O)C(=O)O)C(=O)N[C@H](C(=O)N[C@@H](Cc2ccc(OCCN)c3c2CCC3)C(=O)N[C@@H](Cc2ccc3ccccc3c2)C(=O)NC2(C(=O)N[C@@H](CCC(=O)O)C(=O)N[C@@H](CC(N)=O)C(=O)N[C@@H](Cc3cccnc3)C(=O)N(C)CC(N)=O)CCS(=O)(=O)CC2)C(C)(C)SSC1(C)C [Compound 21] (Ac-[Pen]HT[Trp(7-cPr)]K([AEEA-AEEA-γGlu-C18 diacid])[Pen][Phe(4-OC2H4NH2,2,3-(CH2)3)][2Nal][Thp(SO2)]EN[3Pal][Sar]-NH2; disulfide 1-6) | 0.248 |
| CC(=O)N[C@H]1CNC(=O)NC[C@@H](C(=O)N[C@@H](Cc2ccc(OCCN)cc2)C(=O)N[C@@H](Cc2ccc3ccccc3c2)C(=O)NC2(C(=O)N[C@@H](CCC(=O)O)C(=O)N[C@@H](CC(N)=O)C(=O)N[C@@H](Cc3cccnc3)C(=O)N(C)CC(N)=O)CCOCC2)NC(=O)[C@H](CCC(N)=O)NC(=O)[C@H](Cc2c[nH]c3c(C)cccc23)NC(=O)[C@H]([C@@H](C)O)NC(=O)[C@H](Cc2c[nH]cn2)NC1=O [Compound 23] (Ac-[Dap]HT[Trp(7-Me)]Q[Dap][AEF][2Nal][Thp]EN[3Pal][Sar]-NH2; linker 1-6 via CO) | 0.161 |

Reference: EP4729529A1, “PREPARATION OF PEPTIDE INHIBITOR OF INTERLEUKIN-23 RECEPTOR AND USE THEREOF” (Xizang Haisco Pharmaceutical Co., Ltd., priority 2023, dated 2024)
